Experiment [1] addresses human sodium channel NaV1.2 (Homo sapiens, UniProt Q99250). The experiment in a line: NaV1.2 inhibition, automated patch-clamp (Q-Patch HTX), slow inactivated state (state C). It is filed as cell-based. The note with it: for inhibition at 1 µM: 1 μM compound, read-out: NaV1.2 (% inh), 1 μM; for inhibition at 10 µM: 10 μM compound, read-out: NaV1.2 (% inh), 10 μM. The text has this: In vitro method for NaV1.2 inhibition assays: The methods utilized to assess the inhibitory activity of compounds on NaV1.2 were based on the methods described by Liu et al. [Liu Y, Beck E J, & Flores C M (2011): Validation of a patch clamp screening protocol that simultaneously measures compound activity in multiple states of the voltage-gated sodium channel Nav1.2. Assay Drug Development Technology 9, 628-634]. For these electrophysiology assays, a cell line (Chinese Hamster Ovarian K-1 cells (CHO K-1)) engineered to stably express human sodium channel NaV1.2 was purchased from Millipore Corporation (catalog no. CYL3023). The electrophysiology measurements were performed using automated patch-clamp methods on a Q-Patch HTX instrument by scientists at Evotec AG under contract with Sunovion.
The solutions utilized for the Qpatch experiments were similar buffered solutions to those described by Liu et al. [Liu Y, Beck E J, & Flores C M (2011)]. The extracellular solution contained 140 millimolar sodium chloride, 4 millimolar potassium chloride, 2 millimolar calcium chloride, 1 millimolar magnesium chloride, 10 millimolar 4-(2-hydroxyethyl)-1-piperazineethanesulfonic acid (HEPES), and 10 millimolar glucose (pH adjusted to 7.4 with sodium hydroxide). The intracellular solution contained 100 millimolar cesium fluoride, 45 millimolar cesium chloride, 10 millimolar HEPES, 5 millimolar ethylene glycol tetraacetic acid (EGTA), and 5 millimolar glucose (pH adjusted to 7.2 with cesium hydroxide).
The biophysical experiments of Lui et al. [Liu Y, Beck E J, & Flores C M (2011)] were replicated to assess the fast, slow and total inactivation characteristics of the human Nav1.2 channel
Based upon results from studies of the fast, slow and total inactivation characteristics of the human Nav1.2 channel, a voltage protocol involving a sequence of consecutive pulses of current was used to measure channel activity in several states [Liu Y, Beck E J, & Flores C M (2011)]. The monolayer of CHO K-1 cells stably expressing human sodium channel NaV1.2 (hNaV1.2 CHO cells) was maintained in the Qpatch instrument at a potential of −100 millivolts (mV) except when the voltage protocol was being executed. The first pulse in the protocol involved a 100 millisecond depolarization to 0 mV to enable measurement of channel availability in the closed state (state A). The potential was then maintained at −90 mV for 15 milliseconds, followed by a five millisecond period of depolarization to 0 mV to enable measurement of channel availability after partial recovery from fast inactivation (state B). Next, the potential was maintained at −90 mV for 300 milliseconds, followed by ten seconds at −50 mV, 15 milliseconds at −90 mV, and finally another five millisecond period of depolarization to 0 mV to enable measurement of channel availability after additional recovery from fast inactivation and significant entry into the slow inactivated state (state C). Finally, after an additional 300 millisecond period at −90 mV, another five millisecond period of depolarization to 0 mV was employed to enable measurement of channel availability after partial recovery from the slow inactivated state (state D). Measurements of activity at state C were used to assess the activity of the NaV1.2 channel in the slow inactivated state. Comparison of activity after addition of test compounds or reference compounds with activity after addition of vehicle only provided a measure of percent remaining activity from which percent inhibition was calculated. […] A slight modification of this protocol was utilized to provide measurements as a function of compound concentration, which enabled IC50 values to be determined. IC50 values were calculated by non-linear least squares regression of the data (percent inhibition of ion channel NaV1.2 activity in the slow inactivated state) onto equation (1): % inhibition=100%/(1+(IC50/[compound]) equation (1)
J Pharmacol Exp Ther. 2008 July; 326(1):89-99.].

Experiment [2] addresses T1, recombinant human serotonin receptor 5-HT2A (Homo sapiens, UniProt P28223).
T1 construct: expressed in transfected cells; method B: loaded with Ca2+ dye
In words: 5-HT2A antagonist Ca2+ assay in CHO-K1 cells (method A aequorin luminescence / method B FLIPR fluorescence). It is filed as cell-based. Particulars: antagonist mode vs EC80 of reference agonist, method A or B, read-out: 5HT2A IC50. An outline of the steps: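 IC50 was obtained by nonlinear regression of percent inhibition of the EC80 agonist Ca2+ response in CHO-K1 cells stably expressing human 5-HT2A. The readout was aequorin luminescence with agonist injected 15 min after compound (A), or Ca2+-dye fluorescence on FLIPR with serotonin as agonist (B).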

[3] abbreviates: hNaV1.2 CHO cells, slow inactivated state, read-out: NaV1.2 IC50.
[4] abbreviates: hNaV1.2 CHO cells, slow inactivated state.
Setting [5] is: reference compound, Test 1, read-out: IC50 (μM) for NaV1.2 slow inactivated state, Test 1.
The mark [6] stands for this setting: reference compound, Test 2, read-out: IC50 (μM) for NaV1.2 slow inactivated state, Test 2.
The mark [7] stands for this setting: reference compound, Test 3, read-out: IC50 (μM) for NaV1.2 slow inactivated state, Test 3.

Where two headings read alike, the source gives them in different places. Bounds are passed on as bounds.

human sodium channel NaV1.2, sequence (Q99250 whole entry): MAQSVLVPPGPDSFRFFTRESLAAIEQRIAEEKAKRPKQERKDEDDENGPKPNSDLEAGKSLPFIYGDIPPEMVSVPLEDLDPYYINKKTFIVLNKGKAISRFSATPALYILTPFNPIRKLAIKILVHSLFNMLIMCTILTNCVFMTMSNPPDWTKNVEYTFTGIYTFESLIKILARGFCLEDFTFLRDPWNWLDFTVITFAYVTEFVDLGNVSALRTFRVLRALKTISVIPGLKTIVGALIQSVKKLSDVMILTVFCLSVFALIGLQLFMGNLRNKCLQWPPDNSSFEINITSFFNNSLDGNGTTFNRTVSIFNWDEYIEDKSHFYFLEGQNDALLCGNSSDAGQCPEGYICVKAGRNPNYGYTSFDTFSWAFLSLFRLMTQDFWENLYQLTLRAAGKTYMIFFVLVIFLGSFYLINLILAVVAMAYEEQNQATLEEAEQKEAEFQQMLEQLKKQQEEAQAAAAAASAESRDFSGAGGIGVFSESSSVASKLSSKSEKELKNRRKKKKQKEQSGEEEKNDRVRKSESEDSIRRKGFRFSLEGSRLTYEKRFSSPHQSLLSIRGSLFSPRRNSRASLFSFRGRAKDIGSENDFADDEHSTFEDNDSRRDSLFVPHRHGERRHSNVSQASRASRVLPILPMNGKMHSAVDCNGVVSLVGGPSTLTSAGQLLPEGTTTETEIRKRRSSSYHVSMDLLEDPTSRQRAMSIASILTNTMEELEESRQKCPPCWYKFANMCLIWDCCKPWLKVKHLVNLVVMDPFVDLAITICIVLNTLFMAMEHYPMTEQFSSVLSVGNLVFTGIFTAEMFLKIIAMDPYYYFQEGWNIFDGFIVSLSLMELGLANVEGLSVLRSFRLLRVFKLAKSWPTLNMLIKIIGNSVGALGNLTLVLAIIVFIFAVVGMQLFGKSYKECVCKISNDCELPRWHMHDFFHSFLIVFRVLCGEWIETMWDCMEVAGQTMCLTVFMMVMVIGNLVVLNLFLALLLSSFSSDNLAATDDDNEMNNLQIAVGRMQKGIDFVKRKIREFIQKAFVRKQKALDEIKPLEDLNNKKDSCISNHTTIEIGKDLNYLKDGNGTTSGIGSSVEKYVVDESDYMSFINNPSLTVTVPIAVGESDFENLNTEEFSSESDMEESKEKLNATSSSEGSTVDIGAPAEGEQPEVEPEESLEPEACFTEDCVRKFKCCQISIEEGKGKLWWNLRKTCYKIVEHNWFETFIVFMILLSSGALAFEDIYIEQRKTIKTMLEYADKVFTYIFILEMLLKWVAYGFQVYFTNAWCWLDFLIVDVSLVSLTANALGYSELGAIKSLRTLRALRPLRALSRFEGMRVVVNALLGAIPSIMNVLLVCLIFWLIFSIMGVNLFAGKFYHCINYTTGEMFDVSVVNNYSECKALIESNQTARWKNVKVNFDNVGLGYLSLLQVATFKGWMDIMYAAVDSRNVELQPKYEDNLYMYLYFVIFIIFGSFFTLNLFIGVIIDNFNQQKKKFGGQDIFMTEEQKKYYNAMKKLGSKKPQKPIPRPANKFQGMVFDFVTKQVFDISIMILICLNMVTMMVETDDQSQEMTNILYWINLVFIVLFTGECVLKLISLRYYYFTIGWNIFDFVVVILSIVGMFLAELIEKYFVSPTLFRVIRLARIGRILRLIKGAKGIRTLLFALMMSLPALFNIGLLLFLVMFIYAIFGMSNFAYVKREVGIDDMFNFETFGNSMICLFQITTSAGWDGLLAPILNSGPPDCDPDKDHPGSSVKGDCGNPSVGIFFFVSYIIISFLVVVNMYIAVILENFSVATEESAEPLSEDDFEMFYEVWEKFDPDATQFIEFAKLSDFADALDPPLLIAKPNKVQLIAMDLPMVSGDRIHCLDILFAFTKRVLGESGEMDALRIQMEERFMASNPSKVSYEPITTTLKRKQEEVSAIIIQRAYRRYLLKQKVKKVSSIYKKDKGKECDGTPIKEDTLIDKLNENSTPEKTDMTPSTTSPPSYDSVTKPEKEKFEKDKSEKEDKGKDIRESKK
T1 sequence (P28223 whole entry): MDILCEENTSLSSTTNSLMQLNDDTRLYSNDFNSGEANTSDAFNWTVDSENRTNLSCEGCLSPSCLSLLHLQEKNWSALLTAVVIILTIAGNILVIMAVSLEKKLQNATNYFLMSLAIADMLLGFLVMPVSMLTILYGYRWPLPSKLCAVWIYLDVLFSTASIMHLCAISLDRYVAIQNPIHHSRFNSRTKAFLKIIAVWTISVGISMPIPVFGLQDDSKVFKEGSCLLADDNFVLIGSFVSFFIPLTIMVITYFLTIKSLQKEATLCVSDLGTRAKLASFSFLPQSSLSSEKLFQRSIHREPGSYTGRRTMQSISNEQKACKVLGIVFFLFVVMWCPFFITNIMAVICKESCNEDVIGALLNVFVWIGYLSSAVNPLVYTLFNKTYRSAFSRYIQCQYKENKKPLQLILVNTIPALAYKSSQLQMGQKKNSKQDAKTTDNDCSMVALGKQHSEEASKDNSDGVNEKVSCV

In general, IC50 refers to the concentration that gives 50% inhibition. Turning to `Fc1ccc(OC2CCCN(CC3COc4ccccc43)CC2)cc1` (centres unmarked) [Example 272, 1-((2,3-dihydrobenzofuran-3-yl)methyl)-4-(4-fluorophenoxy)azepane], the IC50 in experiment [1] (setting [3]) turned out to be 0.83 µM; in experiment [2] it was 10 nM.

`COc1ccccc1OC1CCN(CC2CCOc3ccccc32)CC1` (centres unmarked) [Example 162, 1-(chroman-4-ylmethyl)-4-(2-methoxyphenoxy)piperidine]: the inhibition at 1 µM in experiment [1] (setting [4]) is 32%. Moreover, in experiment [2], the concentration for half-maximal inhibition (IC50) came out at 90 nM.

As to `O=C1c2ccccc2CCN1CCN1CCCC(Oc2ccc(F)cc2)CC1` (centres unmarked) [Example 274, 2-(2-(4-(4-fluorophenoxy)azepan-1-yl)ethyl)-3,4-dihydroisoquinolin-1(2H)-one], the inhibition at 1 µM in experiment [1] (setting [4]) worked out at 27%. Besides, in experiment [2], the IC50 worked out at 190 nM.

Regarding `c1ccc(O[C@H]2COC3(C2)CN(C[C@@H]2CCc4ccccc42)C3)cc1` (single isomer, unassigned) [Compound 367], the figures for the IC50 in experiment [1] (setting [3]) and in experiment [2] were 0.39 µM and 280 nM, respectively.

In the case of `c1ccc2c(c1)CCC1(CCN(CCC3Cc4cccnc4C3)CC1)O2` (centres unmarked) [Example 419, 1′-(2-(6,7-dihydro-5H-cyclopenta[b]pyridin-6-yl)ethyl)spiro[chromane-2,4′-piperidine]], the inhibition at 1 µM in experiment [1] (setting [4]) came out at 6%. Also, the half-maximal inhibitory concentration (IC50) in experiment [2] worked out at 220 nM.

Regarding `c1ccc2c(c1)CCC1(CCN(CCC3COCc4ccccc43)CC1)O2` (centres unmarked) [Example 421, 1′-(2-(isochroman-4-yl)ethyl)spiro[chromane-2,4′-piperidine]], in experiment [1] (setting [4]), the inhibition at 1 µM turned out to be 29%. The IC50 in experiment [2] worked out at 130 nM.

Consider `COc1ccc2c(c1)C(CN1CCN(c3ccccc3)CC1)CC2` (centres unmarked) [Example 54, 1-((6-methoxy-2,3-dihydro-1H-inden-1-yl)methyl)-4-phenylpiperazine], for which, in experiment [1] (setting [3]), the IC50 stood at 2.64 µM.

Consider `COCc1cccc(OC2CCN(CCN3CCCc4ccccc4C3=O)CC2)c1` [Example 206, 2-(2-(4-(3-(methoxymethyl)phenoxy)piperidin-1-yl)ethyl)-2,3,4,5-tetrahydro-1H-benzo[c]azepin-1-one], for which, in experiment [1] (setting [4]), the inhibition at 10 µM stood at 46%. Further, the IC50 in experiment [2] was more than 1300 nM.

`Nc1nnc(-c2cccc(Cl)c2Cl)c(N)n1` [lamotrigine, reference compound]: the IC50 in experiment [1] (setting [5]) was 34 µM; in experiment [1] (setting [6]), 33 µM; in experiment [1] (setting [7]), 25 µM.

For the compound `c1ccc(CCN2CCC3(CCc4ccccc4O3)CC2)cc1` [Example 427, l′-phenethylspiro[chromane-2,4′-piperidine]], the inhibition at 10 µM in experiment [1] (setting [4]) was determined as 81%.

On to `NC(=O)N1c2ccccc2C=Cc2ccccc21` [carbamazepine, reference compound], for which the figures for the IC50 in experiment [1] (setting [5]) and in experiment [1] (setting [6]) were 19 µM and 22 µM, respectively.

On to `CN1CCN(c2ncc(-c3cc(Cl)cc(Cl)c3Cl)c(N)n2)CC1` [sipatrigine], for which the IC50 in experiment [1] (setting [5]) amounted to 1.6 µM; in experiment [1] (setting [6]) it was 2.8 µM; in experiment [1] (setting [7]), 0.6 µM; in experiment [1] (reference compound, Test 4, read-out: IC50 (μM) for NaV1.2 slow inactivated state, Test 4), 0.5 µM.

In experiment [1], `COC[C@@H](NC(C)=O)C(=O)NCc1ccccc1` [lacosamide, reference compound] registered an IC50 of 65 µM.

As to `COc1ccc2c(c1)C(C)(CN1CCC(Oc3ccccc3OC)CC1)CC2` (centres unmarked) [Example 97, 1-((6-methoxy-1-methyl-2,3-dihydro-1H-inden-1-yl)methyl)-4-(2-methoxyphenoxy)piperidine], the IC50 in experiment [1] (setting [3]) is 0.08 µM.

As to `C[C@@H]1C[C@]2(CCc3ccccc3O2)CCN1CCO[C@H]1CCc2ccccc21` [Example 435, (2S,2′R)-1′-(2-(((S)-2,3-dihydro-1H-inden-1-yl)oxy)ethyl)-2′-methylspiro[chromane-2,4′-piperidine]], the IC50 in experiment [2] was 370 nM.

Regarding `COc1ccc2c(c1)[C@H](CN1C[C@@H]3CC[C@H]1CN3c1ccccc1)CC2` (single isomer, unassigned) [Compound 312], the half-inhibitory concentration (IC50) in experiment [2] was determined as 430 nM.

Take `OC1(CN2CCC[C@H](Oc3ccc(F)cc3)C2)COCc2ccccc21` (stereo partly drawn) [Example 259, 4-(((S)-3-(4-fluorophenoxy)piperidin-1-yl)methyl)isochroman-4-ol]: in experiment [2], the IC50 is more than 13300 nM.

With `COc1ccc(O[C@H]2CCN(CCN3CCc4ccccc4C3=O)C2)cc1` [Example 28, (S)-2-(2-(3-(4-methoxyphenoxy)pyrrolidin-1-yl)ethyl)-3,4-dihydroisoquinolin-1(2H)-one], the IC50 in experiment [2] came to 10000 nM.

On to `O[C@H](COC1CCCCC1)CN1CC2(CC(Oc3ccccc3)CO2)C1` (stereo partly drawn) [Example 371, (2S)-1-(cyclohexyloxy)-3-(7-phenoxy-5-oxa-2-azaspiro[3.4]octan-2-yl)propan-2-ol], for which the IC50 in experiment [2] is 90 nM.

On to `Fc1ccc(O[C@@H]2CCN(CC3CCc4ccncc43)C2)cc1` (stereo partly drawn) [Example 5, 7-(((R)-3-(4-fluorophenoxy)pyrrolidin-1-yl)methyl)-6,7-dihydro-5H-cyclopenta[c]pyridine], for which the IC50 in experiment [2] is 5880 nM.

Turning to `CC1Cc2ccccc2C(=O)N1CCN1CCC(Oc2cccc(Cl)c2)CC1` (centres unmarked) [Example 198, 2-(2-(4-(3-chlorophenoxy)piperidin-1-yl)ethyl)-3-methyl-3,4-dihydroisoquinolin-1(2H)-one], in experiment [2], the IC50 worked out at 410 nM.

`O=C1CC2(CN(CC3CCc4ccccc43)C2)Oc2ccccc21` (centres unmarked) [Example 386, 1-((2,3-dihydro-1H-inden-1-yl)methyl)spiro[azetidine-3,2′-chroman]-4′-one]: the IC50 in experiment [2] stood at 3760 nM.

With `O[C@H](CO[C@@H]1CCCc2ccccc21)CN1CCN(Cc2ccccc2)CC1` [Example 86, (S)-1-(4-benzylpiperazin-1-yl)-3-(((R)-1,2,3,4-tetrahydronaphthalen-1-yl)oxy)propan-2-ol], the IC50 in experiment [2] is more than 16700 nM.

As to `c1ccc(CCN2C[C@H]3CC[C@@H](C2)N3c2ccccc2)cc1` [Example 298, (1R,5S)-3-phenethyl-8-phenyl-3,8-diazabicyclo[3.2.1]octane], the IC50 in experiment [2] is more than 11000 nM.

`c1ccc(OCCN2CCC(Oc3ccc4cccnc4c3)CC2)cc1` [Example 231, 7-((1-(2-phenoxyethyl)piperidin-4-yl)oxy)quinoline]: in experiment [2], the IC50 amounted to 790 nM.

Take `COCc1ccc(OC2CCN(CC3CCc4ncccc43)CC2)cc1` (centres unmarked) [Example 127, 5-((4-(4-(methoxymethyl)phenoxy)piperidin-1-yl)methyl)-6,7-dihydro-5H-cyclopenta[b]pyridine]: the IC50 in experiment [2] is more than 12000 nM.

Regarding `Fc1ccc(O[C@@H]2CCCN(CCC3CCOc4ccccc43)C2)cc1` (stereo partly drawn) [Example 262, (3R)-1-(2-(chroman-4-yl)ethyl)-3-(4-fluorophenoxy)piperidine], the IC50 in experiment [2] is 1630 nM.

As to `C[C@@H]1C[C@@]2(CCc3ccccc3O2)CCN1CCO[C@H]1CCc2ccccc21` [Example 434, (2R,2′R)-1′-(2-(((S)-2,3-dihydro-1H-inden-1-yl)oxy)ethyl)-2′-methylspiro[chromane-2,4′-piperidine]], the half-inhibitory concentration (IC50) in experiment [2] came out at 730 nM.

The values above are taken from US11186564B2, “Dual NAV1.2/5HT2a inhibitors for treating CNS disorders” (Sunovion Pharmaceuticals Inc., priority 2016, dated 2021).
